The record followed here is US12617818B2, “Compositions and methods for modulating myosin subfragment-2 coiled coil stability and methods for using them” (UNIVERSITY OF NORTH TEXAS, priority 2020, dated 2026).

Structures are written as SMILES. Where “and” joins values, the source holds several entries; their conditions need not be identical. Equal values may be shown once.

The target of assay [1] is T1, smooth muscle myosin S2 peptide (MYH11) (Homo sapiens, UniProt P35749).
T1 construct: A 21 residue peptide of the S2 region of MYH11 was matched to the previously synthesized S2 peptide; host or cells: chemical synthesis
As to the kind of experiment: FRET of smooth muscle myosin S2 peptide dimer with anti-S2 peptides. It is filed as binding. Conditions: Smooth peptide with Stabilizer. The source says:
Human smooth muscle myosin heavy chain (MYH11) is a part of the non-striated muscle. This gene can be found within esophagus, endometrium, duodenum, etc. A 21 residue peptide of the S2 region of MYH11 was matched to the previously synthesized S2 peptide of cardiac isoform and chemically synthesized 926-946. Generated amino acid sequence used is as follow: • Smooth: NH2-[…]—COOH (SEQ ID NO:11)
(§1) Resonance energy probes (donor and acceptor) were covalently attached to synthetic myosin S2 peptides of cardiac muscle, E930del cardiac muscle, E924K cardiac muscle, smooth muscle, and skeletal muscle (Aboonasrshiraz, N., 2020).
Acceptor probe was conjugated to muscle myosin S2 peptides at N-terminus. Muscle myosin S2 peptides were dissolved in 20 mM HEPES buffer at pH 8.0. And FITC was dissolved in few drops of N, N dimethyl formamide. Lastly, FITC and muscle myosin S2 peptide was reacted together in 1 to 1 molar ratio and was let to react for 120 minutes at room temperature. […]
(§2) In FRET assay, Fluorescein Isothiocyanate (FITC) functioned as fluorescent acceptor probe and Terbium Diethylene Triamine Pentaacetic Acid-Cytosine (Lanthanide-DTPA-Cytosine) functioned as donor probe. […] Lifetime of donor probe was measured in milliseconds.
The specificity of peptides were later tested on the myosin S2 of the smooth muscle (MYH11). […] Calculated separation distance in presence of the stabilizer peptide was 3.34 nm.

Assay [2] addresses skeletal muscle myosin S2 peptide (MYH2) (Homo sapiens, UniProt Q9UKX2). As to the kind of experiment: FRET of skeletal muscle myosin S2 peptide dimer with anti-S2 peptides. It is filed as binding. Also noted: A 19 residue peptide of the S2 region of MYH2 was matched to the previously synthesized S2 peptide; host or cells: chemical synthesis. Conditions: Skeletal peptide with Stabilizer.
Description: MYH2 gene codes for human skeletal muscle myosin expressed in fast type IIA muscle fibers. This myosin isoform can be found within extraocular muscle. A 19 residue peptide of the S2 region of MYH2 was matched to the previously synthesized S2 peptide of cardiac isoform and chemically synthesized […]. Generated amino acid sequence used is as follow: residues 925 to 945
as §1
Acceptor probe was conjugated to muscle myosin S2 peptides at N-terminus. Muscle myosin S2 peptides were dissolved in 20 mM HEPES buffer at pH 8.0. And FITC was dissolved in few drops of N, N dimethyl formamide. […]
as §2
Like cardiac muscle myosin S2^pep, dilution by decreasing the concentration of dimer skeletal muscle myosin S2^pep was performed and further was treated with different concentrations of anti-S2 peptides (FIG. 28A, 28B). […] Calculated separation distance in presence of the stabilizer peptide was 3.58 nm.

For assay [3], the system named is rabbit skeletal myofibrils. As to the kind of experiment: Myofibrillar contractility assay (incubated myofibrils, 1 mM ATP). It is filed as biochemical.

T1 sequence (P35749 926-946): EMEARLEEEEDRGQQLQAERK

Regarding `C[C@H](NC(=O)[C@H](CCCCN)NC(=O)[C@H](Cc1ccccc1)NC(=O)[C@H](CCCCN)NC(=O)[C@H](CCCCN)NC(=O)[C@H](CCCCN)NC(=O)[C@H](CCCCN)NC(=O)[C@H](CCCCN)NC(=O)[C@H](CCCCN)NC(=O)[C@H](CCCCN)NC(=O)[C@@H](N)CCCCN)C(=O)N[C@@H](CCCCN)C(=O)N[C@@H](CCCCN)C(=O)N[C@@H](CCCCN)C(=O)N[C@@H](CCCCN)C(=O)N[C@@H](CCCCN)C(=O)N[C@@H](CCCCN)C(=O)O` [Stabilizer], the “TD (donor lifetime without acceptor)” value in assay [1] and in assay [2] was 1.73E−03 each time.

With `CSCC[C@H](NC(=O)[C@H](CCC(=O)O)NC(=O)[C@H](CCCNC(=N)N)NC(=O)[C@H](CCC(=O)O)NC(=O)[C@H](CC(=O)O)NC(=O)[C@H](CCC(=O)O)NC(=O)[C@H](CC(C)C)NC(=O)[C@H](CCCNC(=N)N)NC(=O)[C@H](CCC(=O)O)NC(=O)[C@H](CC(N)=O)NC(=O)[C@H](CCSC)NC(=O)[C@@H](N)CCC(=O)O)C(=O)N[C@@H](CCCCN)C(=O)N[C@@H](C)C(=O)N[C@@H](CCC(=O)O)C(=O)N[C@@H](CC(C)C)C(=O)N[C@H](C(=O)N[C@@H](C)C(=O)N[C@@H](CCCCN)C(=O)O)[C@@H](C)O` [Destabilizer], the “concentration above which percentage contraction saturated” value in assay [3] is “above 40 nM”. Moreover, in assay [3] (from percentage contraction vs concentration, listed as destabilizer peptide, read-out: binding efficiency (Kd) to myofibrils), the Kd is 7.88 nM and 7.8 nM. Also, the “maximum percentage contraction in myofibrils” value in assay [3] (in presence of destabilizer peptide) was 43% and 41%. The EC50 in assay [3] (read-out: effective concentration on percentage of contraction in myofibrils) is less than 10 nM.
